For the assay, the target named is T1, α1,4 Gal-T (Homo sapiens, UniProt Q9NPC4).
T1 sequence (Q9NPC4 1-353): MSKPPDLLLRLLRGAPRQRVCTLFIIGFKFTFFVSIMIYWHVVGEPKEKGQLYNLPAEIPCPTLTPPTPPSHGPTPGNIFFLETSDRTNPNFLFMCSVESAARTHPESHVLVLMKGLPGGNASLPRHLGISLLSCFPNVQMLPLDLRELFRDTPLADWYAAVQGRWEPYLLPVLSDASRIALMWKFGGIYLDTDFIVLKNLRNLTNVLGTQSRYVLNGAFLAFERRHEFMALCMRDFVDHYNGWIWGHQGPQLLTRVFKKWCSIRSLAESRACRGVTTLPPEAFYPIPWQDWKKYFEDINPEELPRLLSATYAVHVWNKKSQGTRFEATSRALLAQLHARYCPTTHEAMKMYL
Kind of assay: Enzyme assay of α1,4 Gal-T in membrane fraction of transfected L cells. To be noted: for Km: acceptor substrate of α1,4 Gal-T, donor UDP-Gal; for significant levels of [14C] galactose incorporation (acceptor): potential acceptors, FIG. 4B.

Description: The enzyme activity of α1,4 Gal-T in the membrane fraction was measured as descibed previously(ref.4). The reaction mixture for the assay contained the following in a volume of 50 μl:50 mM sodium cacodylate-HCl (pH 6.0), 10 mM MgCl2, 5 mM galactonolactone (Sigma), 0.3% Triton X-100 (Sigma), 0.4 mM (LacCer), 2.9 mM phosphatidylglycerol (Sigma), 0.2 mM UDP-Gal (Sigma), UDP-[^14C] Gal (2.5×10^5 dpm) (NEN), and membrane fraction containing 50 μg protein. The protein concentration was determined by Lowry's methods(ref.20). The products was isolated by a C18 Sep-Pak cartridge (Waters, Milford, Mass.) and analyzed by thin layer chromatography (TLC) and autoradiography using a Bio-Imaging Analyzer BAS2000 (Fuji Film, Tokyo).
Enzyme activity toward other potential acceptors was also examined (FIG. 4B).

As to galactosylceramide, the Michaelis-Menten constant (Km) is 132 µM and the “significant levels of [14C] galactose incorporation (acceptor)” value is “significant levels”.
For the substance lactosylceramide [LacCer], the Km was 54.5 µM and the “significant levels of [14C] galactose incorporation (acceptor)” value is listed as “significant levels”.

One may read the Km as the concentration of substrate that gives half-maximal velocity.

(Values after US6783966B1 (priority 2000, dated 2004).)
